Data from patent US8742158B2, “Protease inhibitors” (TaiMed Biologics, Inc., priority 2006, dated 2014).
pEC50, pIC50, pKi: −log10 of the molar value. Where “and” joins values, the source holds several entries; their conditions need not be identical. Equal entries are not always repeated. Where two headings read alike, the source gives them in different places.

Tests used:
HIV-1 Protease = HIV-1 Protease (Human immunodeficiency virus type 1 group M subtype B (isolate HXB2) (HIV-1), UniProt P04585); assay: Enzymatic (FRET fluorometric) assay for determining the inhibition constant (Ki) of compounds targeting the HIV protease; assay type: biochemical; conditions: for pIC50: read-out: IC50 ENZYME HIV-1 Protease
Description: Enzymatic Assay for Determining the Inhibition Constant (Ki) of Synthetic Compounds Targeting the HIV Protease
This is a fluorometric assay based on the cleavage by protease of a substrate carrying a donor group (EDANS) and an acceptor group (DABCYL) on each side of the cleavage site, interacting together through fluorescence resonance energy transfer (FRET) as described by Matayoshi et al. (Science 247:[…], 1990).
After calculation of Vo and Vi, the inhibition constant (Ki) of the compound is determined using the equation of Henderson:
where Vo=the enzyme's initial velocity
Vi=the enzyme velocity in the presence of the inhibitory compound,
[I]=inhibitor concentration, [S]=substrate concentration,
Km=Michaelis-Menten constant and Kiapp=apparent Ki
Graphs are traced and the Ki determined using GraphPad Prism software v. 3.0.

HIV-1 viral strain NL4-3 = assay: Anti-viral assay in vitro (MTT, infected MT-4 cells, six days); assay type: cell-based; conditions: Human immunodeficiency virus 1, NL43, MT4, 144 h, read-out: ANTI-HIV-EC50 VIRAL STRAIN NL4-3
Experimental: Anti-Viral and Cytotoxicity Assays In Vitro
• To evaluate the EC50 of our compounds, various drug concentrations are incubated with the infected cell for six days and then the metabolic activity of the cells is monitored by the MTT assay. (See A. J. Japour et al., Antimicrobial Agents and Chemotherapy, 37, 1095-1101, 1993 and R. Pauwels et al. Journal of Virological Methods, 20, 309-321, 1988) • We use the laboratory viral strain NL4.3 as wild type virus and the cell line used is MT-4 which is a T-cell line highly sensitive to HIV-1. We also use some WT clinical strains. To address the resistance issue we assay the inhibitors with NL4.3 mutants which are designed to be resistant to specific commercially available inhibitors. • The same MTT assay is used to evaluate the CCIC50 (cell culture of IC50) of our compounds except that the virus is omitted.

[1] = calculated Ki, read-out: KI-CALC ENZYME HIV-1 Protease
[2] = KIGRAPHIC ENZYME HIV-1 Protease, Ki determined graphically, read-out: […] ENZYME HIV-1 Protease

With CC(C)CN([C@@H](CCCCNC(=O)[C@H](Cc1ccccc1Br)NC(=O)c1ccncc1)COP(=O)(O)O)S(=O)(=O)c1ccc(N)cc1 [EX 3, (2S,2S) phosphoric acid mono-(2-[(4-aminobenzenesulfonyl)-isobutyl-amino]-6-{3-(2-bromo-phenyl)-2-[(pyridine-4-carbonyl)-amino]-propionylamino}-hexyl)ester] as the compound, how does the pKi (HIV-1 Protease; [1]) read?
Its pKi is < 6.52.

With COC(=O)N[C@@H](Cc1ccccc1F)C(=O)NCCCC[C@@H](COP(=O)(O)O)N(CC(C)C)S(=O)(=O)c1ccc(N)cc1 [EX 4, (1S,5S)-[1-{5-[(4-amino-benzenesulfonyl)-isobutyl-amino]-6-phosphonooxy-hexylcarbamoyl}-2-(2-fluoro-phenyl)-ethyl]-carbamic acid methyl ester] as the compound, how does the pKi (HIV-1 Protease; [1]) read?
Its pKi is < 6.52.

With COC(=O)N[C@@H](Cc1ccccc1Cl)C(=O)NCCCC[C@@H](COP(=O)(O)O)N(CC(C)C)S(=O)(=O)c1ccc(N)cc1 [EX 5, (1S,5S) [1-{5-[(4-amino-benzenesulfonyl)-isobutyl-amino]-6-phosphonooxy-hexylcarbamoyl}-2-(2-chloro-phenyl)-ethyl]-carbamic acid methyl ester] as the compound, how does the pKi (HIV-1 Protease; [1]) read?
The pKi was 7.04.

With COC(=O)N[C@@H](Cc1ccc(Br)cc1)C(=O)NCCCC[C@@H](COP(=O)(O)O)N(CC(C)C)S(=O)(=O)c1ccc(N)cc1 [EX 6, (1S,5S) [1-{5-[(4-amino-benzenesulfonyl)-isobutyl-amino]-6-phosphonooxy-hexylcarbamoyl}-2-(4-bromo-phenyl)-ethyl]-carbamic acid methyl ester] as the compound, how does the pKi (HIV-1 Protease; [1]) read?
The pKi was < 6.52.

Which results are given for COC(=O)N[C@@H](Cc1ccccc1F)C(=O)NCCCC[C@H](CO)N(CC(C)C)S(=O)(=O)c1ccc2c(c1)CCO2 [EX 13]?
pKi (HIV-1 Protease; [1]): 8.04; pEC50 (HIV-1 viral strain NL4-3): 5.67

How did the pKi (HIV-1 Protease; [1]) turn out when COC(=O)N[C@@H](Cc1ccccc1F)C(=O)NCCCC[C@H](CO)N(CC(C)C)S(=O)(=O)c1ccc2c(c1)OCCN2C [EX 14] was run?
Its pKi is 7.12.

And the pEC50 (HIV-1 viral strain NL4-3)?
Its pEC50 is 5.74.

With CC(C)CN([C@H](CO)CCCCNC(=O)[C@H](Cc1ccccc1Br)NC(=O)N1CCOCC1)S(=O)(=O)c1ccc2c(c1)CCO2 [EX 17] as the compound, how does the pKi (HIV-1 Protease; [2]) read?
Its pKi is 9.00 and 8.99.

And the pKi (HIV-1 Protease; [1])?
The pKi was > 8.42.

And the pIC50 (HIV-1 Protease)?
Its pIC50 is 9.22.

And the pEC50 (HIV-1 viral strain NL4-3)?
Its pEC50 is 6.18.

How did the pKi (HIV-1 Protease; [2]) turn out when Cc1c(O)cccc1C(=O)N[C@@H](Cc1ccccc1Br)C(=O)NCCCC[C@@H](CO)N(CC(C)C)S(=O)(=O)c1ccc(N)cc1 [EX 18] was run?
The pKi was 9.59.

What about the pIC50 (HIV-1 Protease) of the same compound?
The pIC50 was 9.22.

And the pEC50 (HIV-1 viral strain NL4-3)?
Its pEC50 is 6.87.

Which results are given for CC(C)CN([C@H](CO)CCCCNC(=O)[C@H](Cc1ccccc1Br)NC(=O)c1cccc(O)n1)S(=O)(=O)c1ccc(N)cc1 [EX 19]?
pKi (HIV-1 Protease; [2]): 9.57; pIC50 (HIV-1 Protease): 9.54; pEC50 (HIV-1 viral strain NL4-3): 7.00

What does the source list for Cc1ccccc1C[C@H](NC(=O)c1cccnc1)C(=O)NCCCC[C@@H](CO)N(CC(C)C)S(=O)(=O)c1ccc(N)cc1 [EX 20]?
pKi (HIV-1 Protease; [1]): > 8.42; pIC50 (HIV-1 Protease): 8.85; pEC50 (HIV-1 viral strain NL4-3): 6.83

How did the pKi (HIV-1 Protease; [1]) turn out when Cc1ccc(C(=O)N[C@@H](Cc2ccccc2C)C(=O)NCCCC[C@@H](CO)N(CC(C)C)S(=O)(=O)c2ccc(N)cc2)cn1 [EX 21] was run?
Its pKi is > 8.42.

What about the pIC50 (HIV-1 Protease) of the same compound?
Its pIC50 is 8.89.

And the pEC50 (HIV-1 viral strain NL4-3)?
Its pEC50 is 6.70.

Which results are given for Cc1ccccc1C[C@H](NC(=O)c1ccncc1)C(=O)NCCCC[C@@H](CO)N(CC(C)C)S(=O)(=O)c1ccc(N)cc1 [EX 22]?
pKi (HIV-1 Protease; [1]): > 8.42; pIC50 (HIV-1 Protease): 8.87; pEC50 (HIV-1 viral strain NL4-3): 6.80

How did the pKi (HIV-1 Protease; [1]) turn out when Cc1ccccc1C[C@H](NC(=O)c1cccc(C)c1O)C(=O)NCCCC[C@@H](CO)N(CC(C)C)S(=O)(=O)c1ccc(N)cc1 [EX 23] was run?
Its pKi is > 8.42.

And the pIC50 (HIV-1 Protease)?
Its pIC50 is 8.38.

What about the pEC50 (HIV-1 viral strain NL4-3) of the same compound?
Its pEC50 is < 4.30.

COC(=O)N[C@@H](CC1CCCCC1)C(=O)NCCCC[C@@H](CO)N(CC(C)C)S(=O)(=O)c1ccc(N)cc1 [EX 24] was tested. Which pKi (HIV-1 Protease; [1]) did it give?
The pKi was 8.28.

And the pIC50 (HIV-1 Protease)?
Its pIC50 is 8.28.

And the pEC50 (HIV-1 viral strain NL4-3)?
The pEC50 was < 5.30.

How did the pKi (HIV-1 Protease; [1]) turn out when CC(C)CN([C@H](CO)CCCCNC(=O)[C@H](CC1CCCCC1)NC(=O)c1cccnc1)S(=O)(=O)c1ccc(N)cc1 [EX 25] was run?
Its pKi is > 8.42.

And the pIC50 (HIV-1 Protease)?
The pIC50 was 8.54.

What about the pEC50 (HIV-1 viral strain NL4-3) of the same compound?
Its pEC50 is < 5.30.

What does the source list for Cc1ccc(C(=O)N[C@@H](CC2CCCCC2)C(=O)NCCCC[C@@H](CO)N(CC(C)C)S(=O)(=O)c2ccc(N)cc2)cn1 [EX 26]?
pKi (HIV-1 Protease; [1]): > 8.42; pIC50 (HIV-1 Protease): 8.48; pEC50 (HIV-1 viral strain NL4-3): < 5.30

COC(=O)N[C@H](C(=O)NCCCC[C@H](CO)N(CC(C)C)S(=O)(=O)c1cccc2cccnc12)C(c1ccccc1)c1ccccc1 [EX 27] was tested. Which pKi (HIV-1 Protease; [1]) did it give?
Its pKi is > 8.42.

What about the pIC50 (HIV-1 Protease) of the same compound?
The pIC50 was 8.59.

And the pEC50 (HIV-1 viral strain NL4-3)?
Its pEC50 is 6.43.

With CC(C)CN([C@H](CO)CCCCNC(=O)[C@@H](NC(=O)c1cccc(O)n1)C(c1ccccc1)c1ccccc1)S(=O)(=O)c1ccc2c(c1)OCO2 [EX 28] as the compound, how does the pKi (HIV-1 Protease; [2]) read?
Its pKi is 9.33.
